{
  "source": "patent US7431953B2",
  "about": "“Skin preparation for external use containing Purpuricenus temminckii frass as the active ingredient” (Nihon University, priority 2002, dated 2008)",
  "data": [
    {"system": "rat-derived basophils (RBL-2H3)", "test": "β-Hexosaminidase release-inhibition assay", "assay_type": "cell-based", "details": "antigen (DNP-BSA)-stimulated RBL-2H3; FIG. 7, FIG. 8", "description": "The assay principle of the β-hexosaminidase release assay is as follows:\nβ-hexosaminidase is a glycolytic enzyme, and is one of the lysosome enzymes occurring abundantly in granules of mast cells.\nIn the β-hexosaminidase release assay, p-nitrophenyl phosphate is separated due to the presence of this enzyme. The separated p-nitrophenyl phosphate is determined by a photometric method (405 nm), and the result is set as the β-hexosaminidase enzyme activity.\nThe effect of inhibiting β-hexosaminidase release was evaluated using the anti-allergic effect test that uses as an index β-hexosaminidase released from the rat-derived basophils (RBL-2H3).\nRBL-2H3 cells were cultured (5% carbon dioxide, 37° C.) in an Eagle minimum essential medium containing 10% fetal calf serum (FCS), 100 units/mL penicillin and 100 μg/mL streptomycin. Then, the cells were plated to a 24-well flat-bottomed microplate for cell culture at 2.5×10^5 cells/well ([…] medium/well). By culturing for 24 hours (5% carbon dioxide, 37° C.), the cells were sensitized. The sensitized cells were then washed once in 500 μl of PBF, and 160 μl of the siraganian buffer containing 5.6 mM glucose, 1 mM calcium chloride and 0.1% BSA was added. A sample solution at each concentration and 20 μl of the test substance solution (DMSO: 0.1%) were added, and ten minutes later the antigen (DNP-BSA: 10 μg/mL) was added and incubated for 10 minutes to stimulate the cells. After stopping the reaction by cooling with ice for 10 minutes, 50 μl of the supernatant was transferred to a 96-well flat-bottomed microtiter plate, to which 100 μl of the enzyme reaction was added and mixed. After determining absorbance of the mixture by a microplate reader, the release ratio was determined by the following equation (measurement wavelength: 405 nm, reference wavelength: 655 nm). β-hexosaminidase release ratio (%)=[amount of β-hexosaminidase released by stimulation/amount of total intracellular β-hexosaminidase]×100\nTotal intracellular β-hexosaminidase was determined using the supernatant obtained by centrifuging the cells disrupted by an ultrasonic disruption instrument.", "values": [
      {"smiles": "c1ccc2c(c1)[I+]c1ccccc1-2", "note": "[DPI, reference compound]", "Effect of inhibiting β-hexosaminidase release": "inhibited, in a concentration-dependent manner"},
      {"smiles": "CC[C@H](CC[C@@H](C)[C@H]1CCC2[C@@H]3CCC4=CC(=O)CC[C@]4(C)C3CC[C@@]21C)C(C)C", "note": "(stereo partly shown) [stigmast-4-en-3-one]", "Effect of inhibiting β-hexosaminidase release": "roughly confirmed"},
      {"smiles": "CC[C@H](CC[C@@H](C)[C@H]1CC[C@H]2[C@@H]3CC(=O)C4=CC(=O)CC[C@]4(C)[C@H]3CC[C@]12C)C(C)C", "note": "[stigmast-4-ene-3,6-dione]", "Effect of inhibiting β-hexosaminidase release": "roughly confirmed"},
      {"smiles": "CC[C@H](/C=C/[C@@H](C)[C@H]1CCC2[C@@H]3CCC4=CC(=O)CC[C@]4(C)C3CC[C@@]21C)C(C)C", "note": "(stereo partly shown) [stigmasta-4,22-dien-3-one]", "Effect of inhibiting β-hexosaminidase release": "roughly confirmed"}
    ]}
  ]
}
